Test results as given in patent US20260049089A1, “KRAS INHIBITOR COMPOUND” (SHANGHAI APEIRON THERAPEUTICS COMPANY LIMITED, priority 2022, published 2026).
Read-outs that look alike come from different tables or passages of the source.

Legend:
Assay type in all cases: cell-based
pERK in AsPC-1 cells = test: ERK phosphorylation cell assay, AsPC-1; details: read-out: pERK AsPC-1_IC50
Experimental: [Worded in the source for another cell line; this cell line is reported under the same test.] (§1) • Day 1: AGS cells were seeded into a 384-well cell culture plate and incubated overnight at 37° C. with 5% CO2 in a cell culture incubator. • Day 2: Compounds were added to the plate using an Echo550 liquid handler, followed by incubation at 37° C. with 5% CO2 in a cell culture incubator for 3 hours. Subsequently, the cells were fixed with paraformaldehyde, permeabilized with methanol, and blocked with blocking buffer. A primary antibody mixture (rabbit anti-pERK, mouse anti-GAPDH) was added, and the plate was incubated overnight at 4° C. • Day 3: The primary antibodies were removed, and a secondary antibody mixture (goat anti-rabbit 800CW, goat anti-mouse 680RD) was added. The plate was incubated at room temperature in the dark. After three washes with PBST, the plate was inverted and centrifuged for 1 minute. Fluorescence signal values were read using an Odyssey CLx imaging system.
(§2) [formula] • Negative control: DMSO • Positive control: 10 μM Reference • Fitted using XLFit 5.0 with the following parameters:
(§3) [formula] • X: Log of compound concentration • Y: Mean relative expression levels of p-ERK across replicates

AsPC-1 cells = test: 3D cell proliferation assay (CellTiter-Glo 3D), AsPC-1; details: 5 days, read-out: 3D Proliferation Inhibition AsPC-1_IC50
Experimental: (§4) Using a nanoliter liquid handling system (LABCYTE, P-0200), the diluted test compounds were added to a 384-well low-adsorption cell culture plate. Cells were seeded into the wells, and the plate was placed in an incubator at 37° C. with 5% CO2. After co-incubating the compounds and cells for 5 days, CellTiter-Glo® 3D reagent was added. Luminescence values were measured using an EnVision Multilabel Plate Reader (luminescence is proportional to the ATP content in the system, and ATP content directly reflects the number of viable cells). Finally, the IC50 values (half-maximal inhibitory concentrations) of the compounds were determined using non-linear fitting equations in XLFit software with the following parameters: […]
(§5) X: Logarithm of compound concentration • Y: Inhibition rate (%)
(§6) [formula] • Negative control: DMSO • Positive control: Medium only

pERK in AGS cells = test: ERK phosphorylation cell assay, AGS; details: 3 hours compound incubation, read-out: pERK AGS_IC50
Experimental: as §1, §2, §3

AGS cells = test: 3D cell proliferation assay (CellTiter-Glo 3D), AGS; details: 5 days, read-out: 3D Proliferation Inhibition AGS_IC50
Experimental: as §4, §5, §6

[1] = Homo sapiens, ASPC1, AsPC-1 cells

SMILES | IC50 (pERK in AsPC-1 cells; AsPC-1 cells) [µM] | IC50 (pERK in AGS cells) [µM] | IC50 (AsPC-1 cells; Homo sapiens, ASPC1, 120 h) [µM] | IC50 (AGS cells; Homo sapiens, AGS, 120 h) [µM] | IC50 (pERK in AsPC-1 cells; [1]) [µM] | IC50 (pERK in AGS cells; Homo sapiens, AGS, 3 h) [µM] | IC50 (AsPC-1 cells) [µM] | IC50 (AGS cells) [µM]
C=C1CN2CCC[C@@]2(COc2nc(N3CCC[C@@](C)(O)C3)c3cc4c(c(F)c3n2)-c2cc(O)cc3ccc(F)c(c23)CCOCCN4)C1 (single isomer, unassigned) [Example 42D] | 0.012 | 0.0022 |  |  |  |  | 0.039 | 0.0059
CN1CCCCc2c(F)ccc3cc(O)cc(c23)-c2c1cc1c(N3CC4CCC(C3)N4)nc(OC[C@@]34CCCN3C[C@H](F)C4)nc1c2F [Example 3, 10-((1R,5S)-3,8-Diazabicyclo[3.2.1]octan-3-yl)-3,14-difluoro-12-(((2R,7aS)-2-fluorotetrahydro-1H-pyrazin-7a(5H)-yl)methoxy)-8-methyl-5,6,7,8-tetrahydro-4H-naphtho[1′,8′:4,5,6]acridin[2,3-g]quinazolin-16-ol] |  |  | 0.393 | 0.329 | 0.104 | 0.047 |  | 
Oc1cc2c3c(c(F)ccc3c1)CCCCCNc1cc3c(N4CC5CCC(C4)N5)nc(OC[C@@]45CCCN4C[C@H](F)C5)nc3c(F)c1-2 [Example 5, 11-((1R,5S)-3,8-Diazabicyclo[3.2.1]octane-3-yl)-3,15-difluoro-13-(((2R,7aS)-2-fluorotetrahydro-1H-pyrrolin-7a(5H)-yl)methoxy)-4,5,6,7,8,9-hexahydro-naphtho[1′,8′:4,5,6][1]azacycloundecino[2,3-g]quinazolin-17-ol] |  |  | 0.196 | 0.128 | 0.041 | 0.012 |  | 
Oc1cc2c3c(c(F)ccc3c1)CCCCCCNc1cc3c(N4CC5CCC(C4)N5)nc(OC[C@@]45CCCN4C[C@H](F)C5)nc3c(F)c1-2 [Example 8] |  |  | 0.682 | 0.255 | 0.278 | 0.073 |  | 
O=C1CCCCCc2c(F)ccc3cc(O)cc(c23)-c2c(cc3c(N4CC5CCC(C4)N5)nc(OC[C@@]45CCCN4C[C@H](F)C5)nc3c2F)N1 [Example 9, 12-((1R,5S)-3,8-diazabicyclo[3.2.1]octan-3-yl)-3,16-difluoro-14-(((2R,7aS)-2-fluorotetrahydro-1H-pyrazin-7a(5H)-yl)methoxy)-18-hydroxy-5,6,7,8-tetrahydro-4H-naphtho[1′,8′:4,5,6][1]azacyclododecino[2,3-g]quinazolin-9(10H)-one] | 0.118 | 0.018 |  | 0.051 |  |  | 0.613 | 
CN(C)CC1(COc2nc(N3CCC[C@@](C)(O)C3)c3cc4c(c(F)c3n2)-c2cc(O)cc3ccc(F)c(c23)CCCCCN4)CC1 [Example 27] |  |  | 1 | 0.314 | 0.338 | 0.099 |  | 
C[C@@]1(O)CCCN(c2nc(OCC34CCCN3CC(=CF)C4)nc3c(F)c4c(cc23)NCCCCCc2c(F)ccc3cc(O)cc-4c23)C1 (stereo partly drawn) [Example 30] |  |  | 0.534 | 0.177 | 0.171 | 0.055 |  | 
C=C1CN2CCCC2(COc2nc(N3CCC[C@@](C)(O)C3)c3cc4c(c(F)c3n2)-c2cc(N)cc3ccc(F)c(c23)CCCCCN4)C1 (stereo partly drawn) [Example 40, (3R)-1-(17-amino-3,15-difluoro-13-((2-methylenetetrahydro-1H-pyrazin-7a(5H)-yl)methoxy)-4,5,6,7,8,9-hexahydronaphtho[1′,8′:4,5,6][1]azacycloundecano[2,3-g]quinazolin-11-yl)-3-methylpiperidin-3-ol] |  |  | 2.17 | 2.05 | > 10 | 9.11 |  | 

More lines, main results first:

IC50 (pERK in AsPC-1 cells; AsPC-1 cells) [µM] | IC50 (pERK in AGS cells) [µM] | IC50 (AsPC-1 cells; Homo sapiens, ASPC1, 120 h) [µM] | IC50 (AGS cells; Homo sapiens, AGS, 120 h) [µM] | IC50 (pERK in AsPC-1 cells; [1]) [µM] | IC50 (pERK in AGS cells; Homo sapiens, AGS, 3 h) [µM] | SMILES | IC50 (AsPC-1 cells) [µM] | IC50 (AGS cells) [µM]
> 10 | > 10 | > 10 | > 10 |  |  | C[C@@]1(O)CCCN(c2nc(OC[C@@]34CCCN3C[C@H](F)C4)nc3c(F)c4c(cc23)NCCOCCc2c(F)ccc3cccc-4c23)C1 (single isomer, unassigned) [Example 52B] |  | 
 |  | 0.288 | 0.083 | 0.102 | 0.031 | C[C@@]1(O)CCCN(c2nc(OC[C@@]34CCCN3C[C@H](F)C4)nc3c(F)c4c(cc23)NCCCCCc2c(F)ccc3cc(O)cc-4c23)C1 [Example 16, 3,15-difluoro-13-(((2R,7aS)-2-fluorotetrahydro-1H-pyrrolidin-7a(5H)-yl)methoxy)-11-((R)-3-hydroxy-3-methylpiperidin-1-yl)-4,5,6,7,8,9-hexahydronaphthol[1′,8′:4,5,6][1]azacycloundecane [2,3-g]quinazolin-17-ol] |  | 
0.754 | 0.157 | 2.1 | 0.346 | 0.728 | 0.135 | C[C@@]1(O)CCCN(c2nc(OCC34CCCN3CC3(CC3)C4)nc3c(F)c4c(cc23)NCCCCCc2c(F)ccc3cc(O)cc-4c23)C1 (stereo partly drawn) [Example 23] |  | 
0.234 | 0.074 | 0.607 | 0.393 | 0.218 | 0.051 | C[C@@]1(O)CCCN(c2nc(OCC3(CN4CCOCC4)CC3)nc3c(F)c4c(cc23)NCCCCCc2c(F)ccc3cc(O)cc-4c23)C1 [Example 26] |  | 
 |  | 3.35 | 3.66 | > 10 | 8.96 | CN1CC(F)(F)C[C@H]1COc1nc(N2CCC[C@@](C)(O)C2)c2cc3c(c(F)c2n1)-c1cc(O)cc2ccc(F)c(c12)CCCCCN3 [Example 34, 13-(((S)-4,4-difluoro-1-methylpyrrolidin-2-yl)methoxy)-3,15-difluoro-11-((R)-3-hydroxy-3-methylpiperidin-1-yl)-4,5,6,7,8,9-hexahydro-naphtho[1′,8′:4,5,6][1]azacycloundecino[2,3-g]quinazoline-17-ol] |  | 
 |  | 2.83 | 2.69 | > 10 | 4.58 | C[C@H](Oc1nc(N2CCC[C@@](C)(O)C2)c2cc3c(c(F)c2n1)-c1cc(O)cc2ccc(F)c(c12)CCCCCN3)[C@@H]1CCCN1C [Example 35, 3,15-Difluoro-11-((R)-3-hydroxy-3-methylpiperidin-1-yl)-13-((S)-1-((S)-1-methylpyrrolidin-2-yl)ethoxy)-4,5,6,7,8,9-hexahydro-naphtho[1′,8′:4,5,6][1]azacycloundecino[2,3-g]quinazoline-17-ol] |  | 
 |  | 2.48 | 1.88 | 3.91 | 1.39 | C[C@@]1(O)CCCN(c2nc(OCC34CCCN3CC(F)(F)C4)nc3c(F)c4c(cc23)NCCCCCc2c(F)ccc3cc(O)cc-4c23)C1 (stereo partly drawn) [Example 36] |  | 
 |  | > 10 | 6.39 | > 10 | > 10 | CN(C)C1CN(c2nc(N3CCC[C@@](C)(O)C3)c3cc4c(c(F)c3n2)-c2cc(O)cc3ccc(F)c(c23)CCCCCN4)C1 [Example 39, (R)-13-(3-(dimethylamino)azetidinyl)-3,15-difluoro-11-(3-hydroxy-3-methylpiperidin-1-yl)-4,5,6,7,8,9-hexahydro-naphtho[1′,8′:4,5,6][1]azacycloundecino[2,3-g]quinazoline-17-ol] |  | 
 |  | 0.434 | 0.148 | 0.108 | 0.061 | C[C@@]1(O)CCCN(c2nc(OC[C@@]34CCCN3C[C@H](F)C4)nc3c(F)c4c(cc23)NCCOCCc2c(F)ccc3cc(O)cc-4c23)C1 [Example 43B] |  | 
